Source: the NIST ThermoML archive (doi:10.1021/je400917j)

Experiment: xn = mol fraction of the nth substance listed
Settings: 101 kPa, Liquid; for mass density: Vibrating tube method

CC(=O)N(C)C [N,N-dimethylethanamide] + CCC(C)O
Settings	mass density, 298.15 K [kg/m3]	mass density, 303.15 K [kg/m3]	mass density, 308.15 K [kg/m3]	mass density, 313.15 K [kg/m3]	viscosity, 298.15 K [mPa·s]	viscosity, 303.15 K [mPa·s]	viscosity, 308.15 K [mPa·s]	viscosity, 313.15 K [mPa·s]
x1 = 0.0812	813.5	808.9	804.1	799.4	2.57	2.19	1.89	1.62
x1 = 0.1602	823.6	818.7	813.6	808.6	2.16	1.88	1.65	1.44
x1 = 0.2401	833.9	828.7	823.7	818.1	1.81	1.61	1.45	1.27
x1 = 0.3499	848.2	842.6	837.1	831.6	1.45	1.35	1.25	1.12
x1 = 0.4355	859.4	853.8	848	842.5	1.27	1.21	1.14	1.03
x1 = 0.56	876	870.3	864.7	859	1.14	1.09	1.02	0.93
x1 = 0.65	888.1	882.5	876.8	871.4	1.08	1.03	0.95	0.88
x1 = 0.7398	900.3	894.9	890.2	884.2	1.03	0.98	0.91	0.84
x1 = 0.8498	915.4	910.3	906.1	900.3	0.99	0.93	0.86	0.8
x1 = 0.9389	927.8	923.1	918.9	914	0.96	0.91	0.82	0.77
x1 = 1	936.5	932	927.8	923.5	0.94	0.87	0.8	0.75

CC(=O)N(C)C [N,N-dimethylethanamide] + CC(C)O
Settings	mass density, 298.15 K [kg/m3]	mass density, 303.15 K [kg/m3]	mass density, 308.15 K [kg/m3]	mass density, 313.15 K [kg/m3]	viscosity, 298.15 K [mPa·s]	viscosity, 303.15 K [mPa·s]	viscosity, 308.15 K [mPa·s]	viscosity, 313.15 K [mPa·s]
x1 = 0.081	796.1	791.8	787.4	782.8	1.68	1.53	1.39	1.22
x1 = 0.16	810.3	806	801.6	797	1.47	1.32	1.23	1.1
x1 = 0.2399	824.2	819.9	815.4	810.9	1.33	1.19	1.11	1
x1 = 0.3499	842.7	838.2	833.8	829.2	1.21	1.08	1.01	0.92
x1 = 0.4399	857.1	852.7	848.2	842.9	1.13	1.03	0.96	0.87
x1 = 0.5598	875.6	871.1	866.7	862.2	1.06	0.97	0.91	0.82
x1 = 0.6496	888.9	884.4	880	875.6	1.02	0.94	0.88	0.8
x1 = 0.7394	901.7	897.2	892.8	888.5	0.99	0.92	0.86	0.78
x1 = 0.8495	916.8	912.4	908	903.7	0.97	0.9	0.84	0.76
x1 = 0.9399	928.8	924.3	920	915.6	0.95	0.89	0.823	0.75
x1 = 1	936.5	932	927.8	923.5	0.94	0.87	0.82	0.75

CCCCCC(C)O (centres undefined) [2-heptanol] + CC(=O)N(C)C
Settings	mass density, 298.15 K [kg/m3]	mass density, 303.15 K [kg/m3]	mass density, 308.15 K [kg/m3]	mass density, 313.15 K [kg/m3]	viscosity, 298.15 K [mPa·s]	viscosity, 303.15 K [mPa·s]	viscosity, 308.15 K [mPa·s]	viscosity, 313.15 K [mPa·s]
x2 = 0	813.2	809.5	805.7	801.5	5.3	4.48	3.68	2.96
x2 = 0.0806	819	814.8	810.8	806.5	4.53	3.75	2.99	2.51
x2 = 0.1595	825	820.7	816.5	812.1	3.77	3.17	2.54	2.13
x2 = 0.2394	831.6	827.1	822.7	818.1	3.11	2.6	2.18	1.82
x2 = 0.3495	841.7	837.1	832.6	827.7	2.46	2.08	1.78	1.48
x2 = 0.4393	850.8	846.2	841.5	836.6	2.07	1.775	1.54	1.28
x2 = 0.559	864.7	859.9	855.1	850.2	1.65	1.436	1.26	1.06
x2 = 0.6494	876.4	871.7	866.8	861.9	1.41	1.219	1.08	0.95
x2 = 0.7393	889.4	884.7	879.9	875.1	1.2	1.09	0.98	0.87
x2 = 0.8494	907.5	902.8	898.1	893.4	1.06	0.97	0.88	0.8
x2 = 0.9393	924.2	919.7	915.3	910.8	0.98	0.906	0.82	0.76
